US20250368635A1, “HETEROARYL DERIVATIVE COMPOUND, AND USES THEREOF” (VORONOI, INC., priority 2022, published 2025)

These compounds were tested on Ba/F3 cells expressing EGFR Del19/C797S (EGFR DC) (assay: Inhibition of proliferation of Ba/F3 cells expressing EGFR Del19/C797S (CellTiter-Glo, 72 h)). Conditions: Mus musculus, BaF3, 72 hours treatment.
Type: cell-based
Description: The following experiment was performed to evaluate the inhibitory activity of the compounds according to the present invention on the proliferation of Ba/F3 cells expressing EGFR Del19/C797S (EGFR DC) and EGFR L858R/C797S (EGFR LC) mutations.
Ba/F3 cells were cultured using medium (RPMI-1640) containing 10% fetal bovine serum (FBS) and 5 ng/ml IL-3 (R&D Systems). The transduced Ba/F3 cells were cultured by adding 1 μg/ml puromycin (Invitrogen) to the same medium.
24 hours prior to treatment with compounds, 3,000 to 5,000 cells were seeded on a well plate (white clear bottom 96 well plate, Corning). The compounds were diluted in dimethyl sulfoxide (3-fold dilution, total of 12 concentrations) and injected at 1 μl each so that the final concentration was 0.2 nM to 5 μM. After 72 hours post treatment with compounds, living cells were stored at room temperature for 10 minutes using CellTiter-Glo luminescent cell-viability reagent (Promega), and the luminescence intensity thereof was measured using a reader (Synergy Neo, Biotek). Each test was repeated three times. The result values were calculated as a cell growth rate (%) compared to the control group. A graph was created using the GraphPad Prism version 8.3.0 program, and GI50 values were calculated.
For `COc1cc(N2CCC3(CC2)CCN(C(C)(C)CF)CC3)c(-c2cn(C)nc2F)cc1Nc1cc(N2OCC[C@@H]2c2ccccc2)ncn1` [Example 103, (R)-N-(5-(3-fluoro-1-methyl-1H-pyrazol-4-yl)-4-(9-(1-fluoro-2-methylpropan-2-yl)-3,9-diazaspiro[5.5]undecan-3-yl)-2-methoxyphenyl)-6-(3-phenylisoxazolidin-2-yl)pyrimidin-4-amine], the GI50 was less than 100 nM.
`COc1cc(N2CCN(C)CC2)c(-c2cnc3ccccc3c2)cc1Nc1cc(N2OCC[C@@H]2c2cccc(F)c2F)ncn1` [Example 78, (R)-6-(3-(2,3-difluorophenyl)isoxazolidin-2-yl)-N-(2-methoxy-4-(4-methylpiperazin-1-yl)-5-(quinolin-3-yl)phenyl)pyrimidin-4-amine] gave a GI50 of 100 to 1000 nM.
With `COc1cc(N2CCC(N3CC(OC)C3)CC2)c(-c2cnn(C)c2)cc1Nc1cc(N2OCC[C@@H]2c2cccc(F)c2F)ncn1` [Example 102, (R)-6-(3-(2,3-difluorophenyl)isoxazolidin-2-yl)-N-(2-methoxy-4-(4-(3-methoxyazetidin-1-yl)piperidin-1-yl)-5-(1-methyl-1H-pyrazol-4-yl)phenyl)pyrimidin-4-amine] the GI50 was less than 100 nM.
`COc1cc(N2CCO[C@H](C)C2)c(-c2cnn(C)c2)cc1Nc1cc(N2OCC[C@@H]2c2cccc(F)c2F)ncn1` [Example 108, 6-((R)-3-(2,3-difluorophenyl)isoxazolidin-2-yl)-N-(2-methoxy-5-(1-methyl-1H-pyrazol-4-yl)-4-((R)-2-methylmorpholino)phenyl)py-rimidin-4-amine] showed a GI50 of 100 to 1000 nM.
Work on `COc1cc(N2CCN(C)CC2)c(-c2ccoc2)cc1Nc1cc(N2OCC[C@@H]2c2cccc(F)c2F)ncn1` [Example 75, (R)-6-(3-(2,3-difluorophenyl)isoxazolidin-2-yl)-N-(5-(furan-3-yl)-2-methoxy-4-(4-methylpiperazin-1-yl)phenyl)pyrimidin-4-amine] yielded a GI50 of 100 to 1000 nM.
`COc1cc(N2C[C@H](C)O[C@@H](C)C2)c(-c2cnn(C)c2)cc1Nc1cc(N2OCC[C@@H]2c2cccc(F)c2F)ncn1` [Example 106, 6-((R)-3-(2,3-difluorophenyl)isoxazolidin-2-yl)-N-(4-((2S,6S)-2,6-dimethylmorpholino)-2-methoxy-5-(1-methyl-1H-pyrazol-4-yl)phenyl)pyrimidin-4-amine] was tested, and the GI50 was 100 to 1000 nM.
`COc1cc(N2CCC3(CCOCC3)C2)c(-c2cnn(C)c2)cc1Nc1cc(N2OCC[C@@H]2c2cccc(F)c2F)ncn1` [Example 45, (R)-6-(3-(2,3-difluorophenyl)isoxazolidin-2-yl)-N-(2-methoxy-5-(1-methyl-1H-pyrazol-4-yl)-4-(8-oxa-2-azaspiro[4.5]decan-2-yl)phenyl)pyrimidin-4-amine] gave a GI50 of 100 to 1000 nM.
`COc1cc(N2CCN(C)CC2)c(-c2ccsc2)cc1Nc1cc(N2OCC[C@@H]2c2cccc(F)c2F)ncn1` [Example 76, (R)-6-(3-(2,3-difluorophenyl)isoxazolidin-2-yl)-N-(2-methoxy-4-(4-methylpiperazin-1-yl)-5-(thiophen-3-yl)phenyl)pyrimidin-4-amine] gave a GI50 of 100 to 1000 nM.
Compound `COc1cc(N2CCC3(CC2)CN(C)CCO3)c(-c2cnn(C)c2)cc1Nc1cc(N2OCC[C@@H]2c2cccc(F)c2F)ncn1` [Example 83, (R)-6-(3-(2,3-difluorophenyl)isoxazolidin-2-yl)-N-(2-methoxy-5-(1-methyl-1H-pyrazol-4-yl)-4-(4-methyl-1-oxa-4,9-diazaspiro[5.5]undecan-9-yl)phenyl)pyrimidin-4-amine] has a GI50 of 100 to 1000 nM.
For `COc1cc(N2CCC(CN(C)C(C)(C)CF)CC2)c(-c2cnn(C)c2)cc1Nc1cc(N2OCC[C@@H]2c2cccc(F)c2F)ncn1` [Example 110, (R)-6-(3-(2,3-difluorophenyl)isoxazolidin-2-yl)-N-(4-(4-(((1-fluoro-2-methylpropan-2-yl)(methyl)amino)methyl)pi-peridin-1-yl)-2-methoxy-5-(1-methyl-1H-pyrazol-4-yl)phenyl)pyrimidin-4-amine], the GI50 was 100 to 1000 nM.
`COc1cc(N2CCC(CN3CCC(CC(F)(F)F)C3)CC2)c(-c2cnn(C)c2)cc1Nc1cc(N2OCC[C@@H]2c2cccc(F)c2F)ncn1` (stereo partly drawn) [Example 63, 6-((R)-3-(2,3-difluorophenyl)isoxazolidin-2-yl)-N-(2-methoxy-5-(1-methyl-1H-pyrazol-4-yl)-4-(4-((3-(2,2,2-trifluoroethyl)pyrrolidin-1-yl)methyl)piperidin-1-yl)phenyl)pyrimidin-4-amine] showed a GI50 of less than 100 nM.
For `COc1cc(N2CCC(C3COC3)CC2)c(-c2cn(C)nc2F)cc1Nc1cc(N2OCC[C@@H]2c2cccc(F)c2F)ncn1` [Example 17, (R)-6-(3-(2,3-difluorophenyl)isoxazolidin-2-yl)-N-(5-(3-fluoro-1-methyl-1H-pyrazol-4-yl)-2-methoxy-4-(4-(oxetan-3-yl)piperidin-1-yl)phenyl)pyrimidin-4-amine], the GI50 was 100 to 1000 nM.
With `COc1cc(N2CCC(N3CCC(F)(F)CC3)CC2)c(-c2cnn(C)c2)cc1Nc1cc(N2OCC[C@@H]2c2cccc(F)c2F)ncn1` [Example 61, (R)-N-(4-(4,4-difluoro-[1,4′-bipiperidin]-1′-yl)-2-methoxy-5-(1-methyl-1H-pyrazol-4-yl)phenyl)-6-(3-(2,3-difluorophenyl)isoxazolidin-2-yl)pyrimidin-4-amine] the GI50 was 100 to 1000 nM.
Compound `COc1cc(N2CCC(N3CC[C@H](F)C3)CC2)c(-c2cnn(C)c2)cc1Nc1cc(N2OCC[C@@H]2c2cccc(F)c2F)ncn1` [Example 71, 6-((R)-3-(2,3-difluorophenyl)isoxazolidin-2-yl)-N-(4-(4-((S)-3-fluoropyrrolidin-1-yl)piperidin-1-yl)-2-methoxy-5-(1-methyl-1H-pyrazol-4-yl)phenyl)pyrimidin-4-amine] has a GI50 of 100 to 1000 nM.
For `COc1cc(N2CCSCC2)c(-c2cnn(C)c2)cc1Nc1cc(N2OCC[C@@H]2c2cccc(F)c2F)ncn1` [Example 85, (R)-6-(3-(2,3-difluorophenyl)isoxazolidin-2-yl)-N-(2-methoxy-5-(1-methyl-1H-pyrazol-4-yl)-4-thiomorpholinophenyl)pyri-midin-4-amine], the GI50 was 100 to 1000 nM.
Work on `COc1cc(N2CCC3(CC2)CC(N(C)C)C3)c(-c2cnn(C)c2)cc1Nc1cc(N2OCC[C@@H]2c2cccc(F)c2F)ncn1` [Example 31, (R)-7-(4-((6-(3-(2,3-difluorophenyl)isoxazolidin-2-yl)pyrimidin-4-yl)amino)-5-methoxy-2-(1-methyl-1H-pyrazol-4-yl)phenyl)-N,N-dimethyl-7-azaspiro[3.5]nonan-2-amine] yielded a GI50 of less than 100 nM.
In the case of `CN1CCN(c2c(-c3cnn(C)c3)cc(Nc3cc(N4OCC[C@@H]4c4cccc(F)c4F)ncn3)c3c2OCO3)CC1` [Example 113, (R)-6-(3-(2,3-difluorophenyl)isoxazolidin-2-yl)-N-(6-(1-methyl-1H-pyrazol-4-yl)-7-(4-methylpiperazin-1-yl)benzo[d][1,3]dioxol-4-yl)pyrimidin-4-amine], the GI50 is reported as less than 100 nM.
Work on `COc1cc(N2CCN(C)CC2)c(-c2ccncc2)cc1Nc1cc(N2OCC[C@@H]2c2cccc(F)c2F)ncn1` [Example 79, (R)-6-(3-(2,3-difluorophenyl)isoxazolidin-2-yl)-N-(2-methoxy-4-(4-methylpiperazin-1-yl)-5-(pyridin-4-yl)phenyl)pyrimidin-4-amine] yielded a GI50 of 100 to 1000 nM.
Work on `COc1cc(N2CCC(N3CC[C@@H](OC)[C@@H](F)C3)CC2)c(-c2cnn(C)c2)cc1Nc1cc(N2OCC[C@@H]2c2cccc(F)c2F)ncn1` [Example 64, 6-((R)-3-(2,3-difluorophenyl)isoxazolidin-2-yl)-N-(4-((3,4R)-3-fluoro-4-methoxy-[1,4′-bipiperidin]-1′-yl)-2-methoxy-5-(1-methyl-1H-pyrazol-4-yl)phenyl)pyrimidin-4-amine] yielded a GI50 of 100 to 1000 nM.
With `COc1cc(N2CCC3(CC2)CCN(C2COC2)CC3)c(-c2cnn(C)c2)cc1Nc1cc(N2OCC[C@@H]2c2cccc(F)c2F)ncn1` [Example 56, (R)-6-(3-(2,3-difluorophenyl)isoxazolidin-2-yl)-N-(2-methoxy-5-(1-methyl-1H-pyrazol-4-yl)-4-(9-(oxetan-3-yl)-3,9-diazaspiro[5.5]undecan-3-yl)phenyl)pyrimidin-4-amine] the GI50 was less than 100 nM.
`Cn1cc(-c2cc(Nc3cc(N4OCC[C@@H]4c4cccc(F)c4F)ncn3)c3c(c2N2CCOCC2)OCCO3)cn1` [Example 96, (R)-6-(3-(2,3-difluorophenyl)isoxazolidin-2-yl)-N-(7-(1-methyl-1H-pyrazol-4-yl)-8-morpholino-2,3-dihydrobenzo[b][1,4]dioxin-5-yl)pyrimidin-4-amine] gave a GI50 of 100 to 1000 nM.
`COc1cc(N2C[C@@H](C)O[C@@H](C)C2)c(-c2cnn(C)c2)cc1Nc1cc(N2OCC[C@@H]2c2cccc(F)c2F)ncn1` [Example 107, 6-((R)-3-(2,3-difluorophenyl)isoxazolidin-2-yl)-N-(4-((2S,6R)-2,6-dimethylmorpholino)-2-methoxy-5-(1-methyl-1H-pyrazol-4-yl)phenyl)pyrimidin-4-amine] showed a GI50 of 100 to 1000 nM.
`COc1cc(N2CCC(N3CC[C@H](OC)C3)CC2)c(-c2cnn(C)c2)cc1Nc1cc(N2OCC[C@@H]2c2cccc(F)c2F)ncn1` [Example 70, 6-((R)-3-(2,3-difluorophenyl)isoxazolidin-2-yl)-N-(2-methoxy-4-(4-((S)-3-methoxypyrrolidin-1-yl)piperidin-1-yl)-5-(1-methyl-1H-pyrazol-4-yl)phenyl)pyrimidin-4-amine] gave a GI50 of 100 to 1000 nM.
